According to patent publication US12139742B2, “Devices, systems, and methods for preparing a standardized inoculum for antimicrobial susceptibility testing” (Avails Medical, Inc., priority 2020, dated 2024):

Tests used:
[1] = system: 23 different positive blood culture (PBC) samples comprising seven different species of bacteria; test: VITEK 2 GN81 automated AST of 0.5 McFarland inocula (present method vs traditional subculture); format: cell-based; settings: for # I: number of isolates deemed intermediate (I); for # R: number of isolates deemed resistant (R); for # S: number of isolates deemed susceptible (S)
Protocol: (§1) Both the present method 1700 and traditional microbial subculturing techniques were used to prepare standardized 0.5 McFarland inocula for AST using Kirby-Bauer disk diffusion (see Table 1) and the automated VITEK2 GN81 AST platform (see Table 2).
(§2) Two sets of standardized 0.5 McFarland inocula were prepared from 23 different positive blood culture (PBC) samples comprising seven different species of bacteria. The 23 PBC samples included six samples of Escherichia coli (ECo), two samples of Enterobacter cloacae (ECl), three samples of Klebsiella pneumoniae (KPn), four samples of Klebsiella oxytoca (KOx), two samples of Citrobacter freundii (CFr), four samples of Serratia marcescens (SMa), and two samples of Klebsiella aerogenes (KAe).
(§3) The first set was prepared using the presently disclosed method 1700 (sample preparation time: between 60 minutes and 180 minutes) and the second set was prepared using traditional microbial subculturing techniques (sample preparation time: between 18 hours to 24 hours). The testing was conducted using the automated VITEK®2 GN81 AST platform (see Table 1) and manual Kirby-Bauer disk diffusion (see Table 2).

[2] = system: 23 different positive blood culture (PBC) samples comprising seven different species of bacteria; test: Kirby-Bauer disk diffusion AST of 0.5 McFarland inocula (present method vs traditional subculture); format: cell-based; settings: for # I: number of isolates deemed intermediate (I); for # R: number of isolates deemed resistant (R); for # S: number of isolates deemed susceptible (S)
Source text: The standardized inoculum 1726 (e.g., the 0.5 McFarland inoculum) can then be used directly for antimicrobial susceptibility testing using manual disk diffusion or diluted further for automated AST platforms. For example, the standardized inoculum 1726 prepared using the method 1700 and system 1702 disclosed herein can be subjected to manual Kirby-Bauer disk diffusion AST or an automated AST platform such as the VITEK®2 platform.
as §1, §2, §3
In total, 296 minimum inhibitory concentrations (MICs) from the VITEK®2 GN81 platform and 224 zone sizes on disk diffusion were evaluated.

[3] = system: KOx harboring the KPC-3 gene; test: Disk diffusion AST, single isolate with major error; format: cell-based, Klebsiella oxytoca
Protocol: as §3

[4] = inoculum prepared using the present method 1700

Compound	# I [1]	# R [1]	# S [1]	# I [2]	# R [2]	# S [2]	susceptibility category ([3]; control 0.5 McFarland inoculum)	zone size ([3]; control 0.5 McFarland inoculum) [mm]	susceptibility category [3, 4]	zone size [3, 4] [mm]
Amoxicillin-Clavulanic acid	1	6	6	0	7	6	–	–	–	–
Trimethoprim-sulfamethoxazole	0	6	11	–	–	–	–	–	–	–
C[C@@H](O)[C@H]1C(=O)N2C(C(=O)O)=C(S[C@@H]3CN[C@H](C(=O)N(C)C)C3)[C@H](C)[C@H]12 [Meropenem]	–	–	–	–	–	–	susceptible	23	resistant	19
Piperacillin-tazobactam	1	3	5	1	3	14	–	–	–	–
Gentamicin	1	2	20	1	2	20	–	–	–	–
